Measurements as given in patent US20250289806A1, “COMPOUNDS FOR PROLIFERATIVE DISORDERS” (UNIVERSITY OF MIAMI, priority 2022, published 2025).
Where two headings read alike, the source gives them in different places.

Columns and labels:
DDR1 = target: T1, DDR1 (Homo sapiens, UniProt Q08345); test: Enzymatic activity assay (Reaction Biology Corporation), DDR1; type: biochemical
T1 construct: purchased Reaction Biology Corporation
Method: (§1) All enzymatic assays and panel profiling studies are activity assays, which were carried out by Reaction Biology Corporation according to the company's protocols.

STK17A = target: T2, STK17A (Homo sapiens, UniProt Q9UEE5); test: Enzymatic activity assay (Reaction Biology Corporation), STK17A; type: biochemical
T2 construct: purchased Reaction Biology Corporation
T2 sequence (Q9UEE5 1-414): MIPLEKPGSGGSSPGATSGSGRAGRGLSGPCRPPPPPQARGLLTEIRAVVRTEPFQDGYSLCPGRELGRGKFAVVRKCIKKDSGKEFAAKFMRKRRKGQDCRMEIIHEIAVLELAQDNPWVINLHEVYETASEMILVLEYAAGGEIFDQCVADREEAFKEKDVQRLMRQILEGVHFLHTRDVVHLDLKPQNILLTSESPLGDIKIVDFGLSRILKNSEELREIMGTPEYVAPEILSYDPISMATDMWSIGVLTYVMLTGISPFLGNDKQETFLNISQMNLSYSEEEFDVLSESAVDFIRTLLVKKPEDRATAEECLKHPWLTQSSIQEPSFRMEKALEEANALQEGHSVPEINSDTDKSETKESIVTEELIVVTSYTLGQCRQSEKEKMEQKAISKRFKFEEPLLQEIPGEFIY
Method: as §1

MYLK4 = target: T3, MYLK4 (Homo sapiens, UniProt Q86YV6); test: Enzymatic activity assay (Reaction Biology Corporation), MYLK4; type: biochemical
T3 construct: purchased Reaction Biology Corporation
T3 sequence (Q86YV6 1-388): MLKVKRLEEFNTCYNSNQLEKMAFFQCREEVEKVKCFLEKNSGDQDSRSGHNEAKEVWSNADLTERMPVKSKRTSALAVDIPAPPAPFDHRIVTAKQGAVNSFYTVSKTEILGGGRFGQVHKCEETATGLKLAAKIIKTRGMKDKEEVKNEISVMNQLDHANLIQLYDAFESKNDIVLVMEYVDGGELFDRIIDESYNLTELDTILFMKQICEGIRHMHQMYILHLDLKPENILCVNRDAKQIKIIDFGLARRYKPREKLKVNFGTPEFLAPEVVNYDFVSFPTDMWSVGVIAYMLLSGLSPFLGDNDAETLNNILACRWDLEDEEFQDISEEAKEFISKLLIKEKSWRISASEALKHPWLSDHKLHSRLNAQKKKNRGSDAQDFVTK
Method: as §1

HL-60 = test: Cell viability assay, HL-60; type: cell-based; settings: Homo sapiens
SKMM2 = test: Cell viability assay, SKMM2; type: cell-based; settings: Homo sapiens, SK-MM-2
MM-M1 = test: Cell viability assay, MM-M1; type: cell-based
HEL = test: Cell viability assay, HEL; type: cell-based; settings: Homo sapiens
KMS12BM = test: Cell viability assay, KMS12BM; type: cell-based; settings: Homo sapiens, KMS-12-BM
MV-4-11 = test: Cell viability assay, MV-4-11; type: cell-based; settings: Homo sapiens, MV4-11
OPM2 = test: Cell viability assay, OPM2; type: cell-based; settings: Homo sapiens, OPM-2
HEK293T = test: Cell viability assay, HEK293T (non-cancer cell line); type: cell-based; settings: Homo sapiens, HEK-293T
RPMI8226 = test: Cell viability assay, RPMI8226; type: cell-based; settings: Homo sapiens, RPMI-8226
SKNO-1 = test: Cell viability assay, SKNO-1; type: cell-based
BJAB = test: Cell viability assay, BJAB; type: cell-based; settings: Homo sapiens
RS4; 11 = test: Cell viability assay, RS4; 11; type: cell-based; settings: Homo sapiens
MEC-1 = test: Cell viability assay, MEC-1; type: cell-based; settings: Homo sapiens, MEC1
THP-1 = test: Cell viability assay, THP-1; type: cell-based; settings: Homo sapiens
K562 = test: Cell viability assay, K562; type: cell-based; settings: Homo sapiens
KMS12PE = test: Cell viability assay, KMS12PE; type: cell-based; settings: Homo sapiens, KMS-12-PE
LP1 = test: Cell viability assay, LP1; type: cell-based; settings: Homo sapiens, LP-1
TF1 = test: Cell viability assay, TF1; type: cell-based; settings: Homo sapiens, TF-1
SET-2 = test: Cell viability assay, SET-2; type: cell-based; settings: Homo sapiens
Kasumi-1 = test: Cell viability assay, Kasumi-1; type: cell-based; settings: Homo sapiens
MOLT4 = test: Cell viability assay, MOLT4; type: cell-based; settings: Homo sapiens
RIVA = test: Cell viability assay, RIVA; type: cell-based
Jurkat = test: Cell viability assay, Jurkat; type: cell-based; settings: Homo sapiens
MOLM-13 = test: Cell viability assay, MOLM-13; type: cell-based; settings: Homo sapiens
U266B1 = test: Cell viability assay, U266B1; type: cell-based
OCI-AML3 = test: Cell viability assay, OCI-AML3; type: cell-based; settings: Homo sapiens, OCI-AML-3
K562 SF3B1 K666N = test: cells; settings: Homo sapiens, K562, 72 h
NALM-6 = test: cells; settings: Homo sapiens, NALM-6, 72 h
NALM-6 SF3B1 K666N = test: cells; settings: Homo sapiens, NALM-6, 72 h
HEL92.1.7 = test: cells; settings: Homo sapiens, HEL 92.1.7, 72 h
MDSL = test: cells; settings: 72 h
[1] = enzymatic activity assay, read-out: IC50 STK17A
[2] = enzymatic activity assay, read-out: IC50 MYLK4
[3] = multiple myeloma (Example 90 table)
[4] = multiple myeloma, cell viability, 72 hours
[5] = lymphoma, cell viability, 72 hours

T1 sequence (Q08345 19-913): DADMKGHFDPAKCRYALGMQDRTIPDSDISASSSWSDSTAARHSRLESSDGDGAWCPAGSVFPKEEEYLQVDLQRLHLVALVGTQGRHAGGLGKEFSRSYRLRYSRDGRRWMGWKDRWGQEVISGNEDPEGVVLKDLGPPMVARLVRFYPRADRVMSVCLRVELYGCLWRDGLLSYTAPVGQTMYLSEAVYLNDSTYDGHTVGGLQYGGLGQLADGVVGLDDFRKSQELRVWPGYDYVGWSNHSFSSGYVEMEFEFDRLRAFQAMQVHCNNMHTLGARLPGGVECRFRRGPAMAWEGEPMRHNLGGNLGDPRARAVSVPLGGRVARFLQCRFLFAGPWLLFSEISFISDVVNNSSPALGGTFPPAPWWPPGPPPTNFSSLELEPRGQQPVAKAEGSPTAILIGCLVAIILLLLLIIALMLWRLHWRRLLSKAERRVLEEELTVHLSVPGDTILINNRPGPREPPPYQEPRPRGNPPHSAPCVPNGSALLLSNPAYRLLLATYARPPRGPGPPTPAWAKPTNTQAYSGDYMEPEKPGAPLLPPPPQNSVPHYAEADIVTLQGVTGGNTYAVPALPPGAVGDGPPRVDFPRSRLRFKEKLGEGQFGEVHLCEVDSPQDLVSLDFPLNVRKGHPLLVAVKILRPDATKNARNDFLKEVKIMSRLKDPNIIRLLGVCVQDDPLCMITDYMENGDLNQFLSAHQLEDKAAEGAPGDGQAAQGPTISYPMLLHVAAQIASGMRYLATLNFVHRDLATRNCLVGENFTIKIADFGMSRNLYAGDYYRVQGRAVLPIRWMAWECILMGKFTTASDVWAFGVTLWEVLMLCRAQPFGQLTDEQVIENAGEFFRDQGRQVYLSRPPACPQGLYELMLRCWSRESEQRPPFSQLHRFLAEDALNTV

OCCN1CCC(n2cc(Nc3nccc(-c4ccc5nc(N6CCOCC6)ncc5c4)n3)cn2)CC1 [Example 29]
IC50 (DDR1): < 0.05 µM | IC50 (STK17A; [1]): < 0.05 µM

c1cc(-c2ccc3nc(N4CCCC4)ncc3c2)nc(Nc2cnn(C3CCNCC3)c2)n1 [Example 3]
IC50 (MYLK4; [2]): < 0.05 µM | IC50 (DDR1): 0.05 to 0.1 µM | IC50 (STK17A; [1]): < 0.05 µM

c1cc(-c2ccc3nc(N4CCCC4)ncc3c2)nc(Nc2ccc(N3CCNCC3)cc2)n1 [Example 1, N-(4-(piperazin-1-yl)phenyl)-4-(2-(pyrrolidin-1-yl)quinazolin-6-yl)pyrimidin-2-amine]
IC50 (MYLK4): < 0.05 µM | IC50 (STK17A): 0.05 to 0.1 µM

c1cc(-c2ccc3nc(N4CCOCC4)ncc3c2)nc(Nc2cnn(C3CCNCC3)c2)n1 [Example 27]
IC50 (HL-60; HL-60, HL60, acute myeloid leukemia (Example 90 table)): 5 µM | IC50 (SKMM2; SKMM2, multiple myeloma (Example 90 table)): 6.62 µM | IC50 (MM-M1; MM-M1, multiple myeloma (Example 90 table)): 8.07 µM | IC50 (HEL; acute myeloid leukemia (Example 90 table)): > 100 µM | IC50 (KMS12BM; [3]): 2.81 µM | IC50 (MYLK4; [2]): < 0.05 µM | IC50 (MV-4-11; MV-4-11, acute myeloid leukemia (Example 90 table)): 0.321 µM | IC50 (OPM2; OPM2, multiple myeloma (Example 90 table)): 6.85 µM | IC50 (HEK293T; non-hematological cell line (Example 90 table)): > 100 µM | IC50 (RPMI8226; RPMI8226, multiple myeloma (Example 90 table)): 2.7 µM | IC50 (SKNO-1; SKNO-1, acute myeloid leukemia (Example 90 table)): 14.8 µM | IC50 (BJAB; lymphoma (Example 90 table)): 12.1 µM | IC50 (RS4; 11; RS4-11, RS411, acute lymphoblastic leukemia (Example 90 table)): 10.1 µM | IC50 (MEC-1; MEC-1, lymphoma (Example 90 table)): 14.2 µM | IC50 (THP-1; THP-1, acute myeloid leukemia (Example 90 table)): 1.15 µM | IC50 (K562; K562, chronic myeloid leukemia (Example 90 table)): 8.71 µM | IC50 (KMS12PE; [3]): 2.81 µM | IC50 (LP1; LP1, multiple myeloma (Example 90 table)): 1.11 µM | IC50 (TF1; TF1, acute myeloid leukemia (Example 90 table)): 15 µM | IC50 (SET-2; SET-2, acute myeloid leukemia (Example 90 table)): 0.648 µM | IC50 (Kasumi-1; Kasumi-1, acute myeloid leukemia (Example 90 table)): 0.53 µM | IC50 (DDR1): < 0.05 µM | IC50 (MOLT4; MOLT-4, acute lymphoblastic leukemia (Example 90 table)): > 100 µM | IC50 (RIVA; lymphoma (Example 90 table)): 9.2 µM | IC50 (STK17A; [1]): < 0.05 µM | IC50 (Jurkat; acute lymphoblastic leukemia (Example 90 table)): 6.14 µM | IC50 (MOLM-13; MOLM-13, acute myeloid leukemia (Example 90 table)): 0.196 µM | IC50 (U266B1; U266B1, multiple myeloma (Example 90 table)): 12.6 µM | IC50 (OCI-AML3; OCI-AML3, acute myeloid leukemia (Example 90 table)): 0.886 µM

c1cc(-c2ccc3nc(N4CCCC4)ncc3c2)nc(Nc2ccc(N3CCNCC3)nc2)n1 [Example 4]
IC50 (MYLK4): < 0.05 µM | IC50 (STK17A; [1]): < 0.05 µM

O=C(NC1CCNCC1)c1ccc(Nc2nccc(-c3ccc4nc(N5CCCC5)ncc4c3)n2)cc1 [Example 5]
IC50 (STK17A; [1]): > 0.1 µM

CC(C)NC(=O)c1ccc(Nc2nccc(-c3ccc4nc(N5CCCC5)ncc4c3)n2)cc1 [Example 7]
IC50 (HL-60; HL-60, acute myeloid leukemia, cell viability, 72 hours): > 100 µM | IC50 (SKMM2; SKMM2, multiple myeloma, cell viability, 72 hours): > 100 µM | IC50 (MM-M1; MM-M1, multiple myeloma, cell viability, 72 hours): > 100 µM | IC50 (HEL; acute myeloid leukemia, cell viability, 72 hours): 3.6 µM | IC50 (K562 SF3B1 K666N): 0.182 µM | IC50 (NALM-6): 5.5 µM | IC50 (KMS12BM; [4]): 2.47 µM | IC50 (MYLK4): 0.05 to 0.1 µM | IC50 (MV-4-11; MV-4-11, acute myeloid leukemia, cell viability, 72 hours): 3.69 µM | IC50 (OPM2; OPM2, multiple myeloma, cell viability, 72 hours): 23.1 µM | IC50 (HEK293T; non-hematological cell line, cell viability, 72 hours): > 100 µM | IC50 (RPMI8226; RPMI8226, multiple myeloma, cell viability, 72 hours): 8.96 µM | IC50 (NALM-6 SF3B1 K666N): 0.908 µM | IC50 (SKNO-1; SKNO-1, acute myeloid leukemia, cell viability, 72 hours): 16.9 µM | IC50 (BJAB; [5]): > 100 µM | IC50 (RS4; 11; RS4, 11, acute lymphoblastic leukemia, cell viability, 72 hours): 8.37 µM | IC50 (MEC-1; MEC-1, lymphoma, cell viability, 72 hours): > 100 µM | IC50 (THP-1; THP-1, acute myeloid leukemia, cell viability, 72 hours): 20 µM | IC50 (K562; K562, chronic myeloid leukemia, cell viability, 72 hours): 4.79 µM | IC50 (HEL92.1.7): 0.769 µM | IC50 (KMS12PE; [4]): > 100 µM | IC50 (MDSL): > 100 µM | IC50 (LP1; LP1, multiple myeloma, cell viability, 72 hours): 31.6 µM | IC50 (TF1; TF1, acute myeloid leukemia, cell viability, 72 hours): > 100 µM | IC50 (SET-2; SET-2, acute myeloid leukemia, cell viability, 72 hours): 3.71 µM | IC50 (Kasumi-1; Kasumi-1, acute myeloid leukemia, cell viability, 72 hours): 8.1 µM | IC50 (MOLT4; MOLT-4, MOLT4, acute lymphoblastic leukemia, cell viability, 72 hours): 16.1 µM | IC50 (RIVA; [5]): > 100 µM | IC50 (STK17A; [1]): < 0.05 µM | IC50 (Jurkat; acute lymphoblastic leukemia, cell viability, 72 hours): 25.7 µM | IC50 (MOLM-13; MOLM-13, acute myeloid leukemia, cell viability, 72 hours): 0.924 µM | IC50 (U266B1; U266B1, multiple myeloma, cell viability, 72 hours): > 100 µM | IC50 (OCI-AML3; OCI-AML3, acute myeloid leukemia, cell viability, 72 hours): > 100 µM

OCCn1cc(Nc2nccc(-c3ccc4nc(N5CCOCC5)ncc4c3)n2)cn1 [Example 28]
IC50 (MYLK4; [2]): < 0.05 µM | IC50 (STK17A; [1]): < 0.05 µM

c1cc(-c2ccc3nc(N4CCOCC4)ncc3c2)nc(Nc2ccc(N3CCNCC3)cc2)n1 [Example 26]
IC50 (MYLK4): < 0.05 µM | IC50 (STK17A; [1]): < 0.05 µM

CC(C)NC(=O)c1ccc(Nc2nccc(-c3ccc4nc(N5CCOCC5)ncc4c3)n2)cc1 [Example 20]
IC50 (MYLK4): 0.05 to 0.1 µM | IC50 (DDR1): > 0.1 µM | IC50 (STK17A; [1]): < 0.05 µM

c1cc(-c2ccc3nc(N4CCCC4)ncc3c2)nc(Nc2ccc(N3CCOCC3)cc2)n1 [Example 2]
IC50 (MYLK4): < 0.05 µM | IC50 (STK17A; [1]): < 0.05 µM

CC(C)NC(=O)c1cccc(Nc2nccc(-c3ccc4nc(N5CCCC5)ncc4c3)n2)c1 [Example 6]
IC50 (STK17A; [1]): > 0.1 µM
